{
  "source": "patent US20260217701A1",
  "about": "“SELECTIVE BET INHIBITORS AND USES THEREOF” (Tay Therapeutics Limited, priority 2022, published 2026)",
  "test_system": "imiquimod-induced psoriasis",
  "experiment": "Imiquimod-induced psoriasis model",
  "format": "in vivo, mice",
  "settings": "for Body Weight D1: Day 1 (before treatment start on Day 8); for Body Weight D1 / Body Weight D3 / Body Weight D5 / Body Weight D7 / Body Weight D8 / Body Weight D9 / Body Weight D10 / Body Weight D11 / Body Weight D12 / Body Weight D13 / Body Weight D14 / Body Weight D15 / MBWC D1-D8 / MBWC D8-D15 / PASI Scores: individual animals; for Body Weight D3: Day 3 (before treatment start on Day 8); for Body Weight D5: Day 5 (before treatment start on Day 8); for Body Weight D7: Day 7 (before treatment start on Day 8); for Body Weight D8: Day 8 (first day of treatment); for Body Weight D9: Day 9; for Body Weight D10: Day 10; for Body Weight D11: Day 11; for Body Weight D12: Day 12; for Body Weight D13: Day 13; for Body Weight D14: Day 14; for Body Weight D15: Day 15; for MBWC D1-D8: body weight change Day 1 to Day 8 (before treatment); for MBWC D8-D15: body weight change Day 8 to Day 15 (treatment period); for PASI Scores: IMI + Compound A 1 mg/kg",
  "how_it_was_run": "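Mice given topical imiquimod (5% cream) daily on depilated backs Days 1–14; Compound A in 5% DMSO/40% PEG-400/55% saline from Day 8, clobetasol topical as reference. Daily PASI (erythema, induration, peeling, each 0–4, summed) Days 8–15; spleen weight, open-field behaviour, serum IL-1B, IL-6, IL-17, TNF-α, IL-22, IL-23 at Day 15.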",
  "key": {"[1]": {"settings": "IMI + 1 mg/kg, 1 mg/kg, in g (unit assumed)"}, "[2]": {"settings": "IMI + 3 mg/kg, 3 mg/kg, in g (unit assumed)"}, "[3]": {"settings": "IMI + 10 mg/kg, 10 mg/kg, in g (unit assumed)"}},
  "note": "“And” between values parts separate entries of the source, which are not always exact repeats. Identical values can stand only once.",
  "data": [
    {"smiles": "Cn1cc(-c2ccccc2)c(-c2cn(C)c(=O)c3[nH]c(-c4cnn(C(F)(F)F)c4)cc23)cc1=O", "note": "[Compound A, 6-methyl-4-(1-methyl-2-oxo-5-phenyl-1,2-dihydropyridin-4-yl)-2-(1-(trifluoromethyl)-1H-pyrazol-4-yl)-1,6-dihydro-7H-pyrrolo[2,3-c]pyridin-7-one]", "values": [
      {"measurement": "PASI score improvement by day 15", "setting": "1 mg/kg", "result": "> 80", "unit": "%"},
      {"measurement": "PASI score improvement by day 15", "setting": "3 mg/kg", "result": "> 90", "unit": "%"},
      {"measurement": "symptoms by day 15 (representative images)", "setting": "3 mg/kg", "result": "nearly entirely symptom free"},
      {"measurement": "PASI-90 (change in PASI score ≥90%) by day 7 of treatment", "setting": "3 mg/kg IP once daily", "result": "surpassed PASI-90"},
      {"measurement": "PASI score improvement by day 15", "setting": "10 mg/kg", "result": "> 90", "unit": "%"},
      {"measurement": "efficacy on the treatment of psoriasis", "setting": "3 tested doses (1, 3, 10 mg/kg)", "result": "very good efficacy"},
      {"measurement": "licking scoring", "setting": "D15", "result": "effective in reducing licking scoring"},
      {"measurement": "rearing behavior", "setting": "D15, open field", "result": "restored rearing behavior"},
      {"measurement": "Body Weight D1", "setting": "[1]", "result": "16.93 and 17.80 and 16.08 and 16.97 and 17.74 and 17.12 and 18.36 and 17.34"},
      {"measurement": "Body Weight D3", "setting": "[1]", "result": "15.40 and 16.02 and 15.09 and 15.92 and 16.29 and 16.59 and 16.98 and 15.19"},
      {"measurement": "Body Weight D5", "setting": "[1]", "result": "15.20 and 16.76 and 15.65 and 16.45 and 16.71 and 17.23 and 17.40 and 15.42"},
      {"measurement": "Body Weight D7", "setting": "[1]", "result": "15.18 and 17.36 and 15.85 and 16.10 and 16.71 and 17.27 and 17.41 and 15.38"},
      {"measurement": "Body Weight D8", "setting": "[1]", "result": "14.60 and 16.99 and 15.82 and 16.44 and 16.60 and 17.49 and 16.66 and 14.75"},
      {"measurement": "Body Weight D9", "setting": "[1]", "result": "14.63 and 17.16 and 15.82 and 16.15 and 16.59 and 17.04 and 16.41 and 15.55"},
      {"measurement": "Body Weight D10", "setting": "[1]", "result": "14.70 and 16.93 and 15.61 and 15.89 and 16.21 and 16.73 and 16.12 and 15.11"},
      {"measurement": "Body Weight D11", "setting": "[1]", "result": "14.84 and 17.22 and 15.81 and 15.74 and 16.25 and 16.90 and 16.89 and 15.58"},
      {"measurement": "Body Weight D12", "setting": "IMI + 1 mg/kg, 1 mg/kg", "result": "14.87 and 16.99 (2×) and 15.46 and 15.54 and 17.30 and 17.06 and 15.66"},
      {"measurement": "Body Weight D13", "setting": "[1]", "result": "15.05 and 17.40 and 16.20 and 15.94 and 16.75 and 17.05 and 16.69 and 15.46"},
      {"measurement": "Body Weight D14", "setting": "[1]", "result": "15.56 and 17.50 and 16.49 and 16.50 and 17.20 and 17.24 and 16.86 and 16.35"},
      {"measurement": "Body Weight D15", "setting": "[1]", "result": "15.74 and 17.76 and 16.69 and 17.05 and 17.07 and 17.34 and 17.23 and 16.41"},
      {"measurement": "MBWC D1-D8", "setting": "IMI + 1 mg/kg, 1 mg/kg", "result": "−2.33 and −0.81 and −0.26 and −0.53 and −1.14 and 0.37 and −1.70 and −2.59"},
      {"measurement": "MBWC D8-D15", "setting": "IMI + 1 mg/kg, 1 mg/kg", "result": "1.14 and 0.77 and 0.87 and 0.61 and 0.47 and −0.15 and 0.57 and 1.66"},
      {"measurement": "Body Weight D1", "setting": "[2]", "result": "17.31 and 16.98 and 19.05 and 16.34 and 18.16 and 17.71 and 15.90 and 17.04"},
      {"measurement": "Body Weight D3", "setting": "[2]", "result": "15.94 and 14.69 and 16.63 and 15.29 and 15.93 and 15.05 and 14.65 and 15.53"},
      {"measurement": "Body Weight D5", "setting": "[2]", "result": "16.84 and 15.15 and 16.74 and 15.65 and 17.11 and 16.06 and 16.09 and 15.35"},
      {"measurement": "Body Weight D7", "setting": "[2]", "result": "16.64 and 14.71 and 16.54 and 14.84 and 17.16 and 15.73 and 15.75 and 15.45"},
      {"measurement": "Body Weight D8", "setting": "IMI + 3 mg/kg, 3 mg/kg", "result": "16.59 and 14.84 and 16.76 and 15.51 (2×) and 15.95 and 15.14 and 15.67"},
      {"measurement": "Body Weight D9", "setting": "[2]", "result": "16.53 and 14.49 and 16.98 and 15.40 and 16.26 and 15.22 and 15.49 and 14.89"},
      {"measurement": "Body Weight D10", "setting": "[2]", "result": "16.64 and 14.53 and 17.40 and 15.71 and 16.02 and 15.31 and 14.80 and 14.76"},
      {"measurement": "Body Weight D11", "setting": "[2]", "result": "17.05 and 14.95 and 17.25 and 15.60 and 16.07 and 15.67 and 15.43 and 15.33"},
      {"measurement": "Body Weight D12", "setting": "[2]", "result": "17.56 and 15.38 and 17.88 and 15.18 and 16.82 and 16.07 and 15.80 and 15.88"},
      {"measurement": "Body Weight D13", "setting": "[2]", "result": "17.68 and 16.03 and 18.03 and 15.39 and 16.24 and 16.09 and 15.63 and 15.61"},
      {"measurement": "Body Weight D14", "setting": "[2]", "result": "17.80 and 16.01 and 17.97 and 15.32 and 16.91 and 16.84 and 15.90 and 15.97"},
      {"measurement": "Body Weight D15", "setting": "IMI + 3 mg/kg, 3 mg/kg", "result": "18.44 (2×) and 16.47 (2×) and 15.82 and 16.95 and 16.91 and 16.13"},
      {"measurement": "MBWC D1-D8", "setting": "IMI + 3 mg/kg, 3 mg/kg", "result": "−0.72 and −2.14 and −2.29 and −0.83 and −2.21 and −2.57 and −0.39 and −1.37"},
      {"measurement": "MBWC D8-D15", "setting": "IMI + 3 mg/kg, 3 mg/kg", "result": "1.85 and 1.63 and 1.68 and 0.31 and 1.00 and 1.77 and 0.62 and 0.80"},
      {"measurement": "Body Weight D1", "setting": "[3]", "result": "17.49 and 17.30 and 19.10 and 19.20 and 19.68 and 17.68 and 16.28 and 17.45"},
      {"measurement": "Body Weight D3", "setting": "[3]", "result": "15.01 and 14.91 and 17.43 and 18.70 and 15.42 and 17.04 and 13.99 and 14.57"},
      {"measurement": "Body Weight D5", "setting": "IMI + 10 mg/kg, 10 mg/kg", "result": "15.12 (2×) and 14.82 and 17.32 and 19.02 and 15.82 and 16.99 and 15.18"},
      {"measurement": "Body Weight D7", "setting": "[3]", "result": "16.33 and 15.77 and 17.25 and 18.62 and 16.18 and 17.36 and 15.18 and 14.93"},
      {"measurement": "Body Weight D8", "setting": "[3]", "result": "16.07 and 15.40 and 17.12 and 18.84 and 15.35 and 16.21 and 14.88 and 14.68"},
      {"measurement": "Body Weight D9", "setting": "[3]", "result": "15.69 and 15.96 and 16.63 and 19.27 and 15.91 and 16.41 and 14.96 and 14.71"},
      {"measurement": "Body Weight D10", "setting": "[3]", "result": "15.53 and 15.84 and 16.68 and 18.91 and 16.27 and 16.73 and 15.10 and 14.49"},
      {"measurement": "Body Weight D11", "setting": "IMI + 10 mg/kg, 10 mg/kg", "result": "15.74 and 15.58 (2×) and 16.84 and 19.15 and 16.81 and 17.05 and 15.32"},
      {"measurement": "Body Weight D12", "setting": "[3]", "result": "15.83 and 15.88 and 17.03 and 19.25 and 17.13 and 17.19 and 16.27 and 15.58"},
      {"measurement": "Body Weight D13", "setting": "[3]", "result": "17.35 and 16.03 and 17.55 and 19.51 and 16.98 and 17.10 and 16.02 and 15.65"},
      {"measurement": "Body Weight D14", "setting": "[3]", "result": "16.58 and 16.42 and 17.59 and 19.36 and 17.68 and 17.84 and 16.59 and 15.62"},
      {"measurement": "Body Weight D15", "setting": "[3]", "result": "16.60 and 16.43 and 18.35 and 19.39 and 17.81 and 18.26 and 16.77 and 15.96"},
      {"measurement": "MBWC D1-D8", "setting": "IMI + 10 mg/kg, 10 mg/kg", "result": "−1.42 and −1.90 and −1.98 and −0.36 and −4.33 and −1.47 and −1.40 and −2.77"},
      {"measurement": "MBWC D8-D15", "setting": "IMI + 10 mg/kg, 10 mg/kg", "result": "0.53 and 1.03 and 1.23 and 0.55 and 2.46 and 2.05 and 1.89 and 1.28"},
      {"measurement": "PASI Scores", "setting": "D8 (day treatment started), 1 mg/kg", "result": "8 (4×) and 6 (2×) and 7 (2×)"},
      {"measurement": "PASI Scores", "setting": "D9, 1 mg/kg", "result": "7 (3×) and 6 (3×) and 9 and 8"},
      {"measurement": "PASI Scores", "setting": "D10, 1 mg/kg", "result": "7 and 6 (3×) and 5 (3×) and 8"},
      {"measurement": "PASI Scores", "setting": "D11, 1 mg/kg", "result": "6 (3×) and 4 (2×) and 5 and 8 and 7"}
    ]}
  ]
}
